These are literature values, as cited in patent publication US11179370B2, “Cannabinoid receptor antagonists/inverse agonists useful for treating disease conditions, including metabolic disorders and cancers” (Jenrin Discovery, LLC, priority 2012, dated 2021).

For the series the following is noted: type 2 diabetes patients without other anti-diabetic medication, after six months of treatment, baseline value 7.9.

Take `Cc1c(C(=O)NN2CCCCC2)nn(-c2ccc(Cl)cc2Cl)c1-c1ccc(Cl)cc1` [rimonabant]: the HbA1c levels lowered is 0.8%.
